In patent publication US12454534B2, “Pyrrolo[2,3-b]pyrazines as HPK1 inhibitor and the use thereof” (BEIGENE, LTD., priority 2019, dated 2025):

Experiments:
[1] = target: T1, HPK1 kinase (aa1-346, Life Technologies) (Homo sapiens, UniProt Q92918); assay: HPK1 Kinase Activity Assay at 1 mM ATP (TR-FRET); assay type: biochemical; details: HPK1 40 nM, read-out: Enzymatic activity IC50
T1 construct: HPK1 kinase (aa1-346, Life Technologies); purchased Life Technologies
T1 sequence (Q92918 1-346): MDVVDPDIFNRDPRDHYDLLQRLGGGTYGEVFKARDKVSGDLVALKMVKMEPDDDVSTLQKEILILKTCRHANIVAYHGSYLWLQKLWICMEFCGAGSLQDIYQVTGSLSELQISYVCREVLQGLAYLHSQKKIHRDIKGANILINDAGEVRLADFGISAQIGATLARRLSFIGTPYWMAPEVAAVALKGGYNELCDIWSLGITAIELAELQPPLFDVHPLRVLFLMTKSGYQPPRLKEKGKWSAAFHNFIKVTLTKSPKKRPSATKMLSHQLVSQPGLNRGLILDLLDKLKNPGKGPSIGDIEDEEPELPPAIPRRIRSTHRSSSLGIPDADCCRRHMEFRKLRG
Description: HPK1 Kinase Activity Assay at 1 mM ATP
Compounds disclosed herein were tested for inhibition of HPK1 kinase (aa1-346, Life Technologies) activity in assays based on the time-resolved fluorescence-resonance energy transfer (TR-FRET) methodology. The assays were carried out in 384-well low volume black plates in a reaction mixture containing HPK1 kinase (40 nM), 1 mM ATP, 0.5 μM STK1 substrate and 0-10 μM compound in buffer containing 50 mM HEPES, 0.01% BSA, 0.1 mM Orthovanadate, 10 mM MgCl2, 1 mM DTT, pH=7.0, 0.005% Tween-20. The kinase was incubated with the compounds disclosed herein or DMSO for 60 minutes at room temperature and the reaction was initiated by the addition of ATP and STK1 substrate. After reaction at room temperature for 120 minutes, an equal volume of stop/detection solution was added according to the manufacturer's instruction (CisBio). The stop/detection solution contained STK Antibody-Cryptate and XL665-conjugated streptavidin in Detection Buffer. The TR-FRET signals (ratio of fluorescence emission at 665 nm over emission at 620 nm with excitation at 337 nm wavelength) were recorded on a PHERAstar FS plate reader (BMG Labtech). Phosphorylation of STK1 substrate led to the binding of STK Antibody-Cryptate to the biotinylated STK1 substrate, which places fluorescent donor (Eu^3+ cryptate) in close proximity to the accepter (Streptavidin-XL665), thus resulting in a high degree of fluorescence resonance energy transfer. The inhibition of HPK1 in presence of increasing concentrations of compounds was calculated based on the ratio of fluorescence at 665 nm to that at 620 nm. The IC50 for each compound was derived from fitting the data to the four-parameter logistic equation by Graphpad Prism software.

[2] = tested on: HEK293 cells; assay: HEK293 cell viability assay (CellTiter-Glo); assay type: cell-based; details: Homo sapiens, HEK293, 72 h, 3-day exposure, 0 to 10 μM
Description: Cytotoxicity on HEK293 Cells Proliferation (HEK293 Cell Viability Assay)
HEK293 cell line were used in this study. Cell lines were maintained in DMEM (Dulbecco's Modified Eagle Medium) supplemented with 10% fetal bovine serum (Thermo Fisher), 50 units/mL penicillin and streptomycin (Thermo Fisher) and kept at 37° C. in a humidified atmosphere containing 5% CO2 in air. Cell lines were reinstated from frozen stocks that were laid down within 50 passages from the original cells purchased. The growth-inhibitory activity of compounds in HEK293 cells was determined using CellTiter-Glo luminescent cell viability assay (Promega). 3000 cells per well were seeded into a 96-well plate to ensure logarithmic growth for 3 days treatment period. Cells were treated with a 10-point dilution series. The final compound concentration was from 0 to 10 μM. Following a 3-day exposure to the test compounds, 30 μL of CellTiter-Glo reagent was added into 100 μL cell culture medium per well. Mixture was mixed on an orbital shaker for 2 minutes to allow cell lysis, followed by 10 minutes of incubation at room temperature to allow development and stabilization of luminescent signal, which corresponded to the quantity of ATP and thus the quantity of metabolically active cells. Luminescent signal was measured using PHERAstar FS reader (BMG Labtech). IC50 values for cell viability were determined with Dotmatics.

SMILES | IC50 [1] | IC50 [2]
Cc1cc(-c2cnc3[nH]cc(-c4ccc(C(=O)N(C)C)cc4)c3n2)cc2c1CCN(C)C2 [Example 1, 4-[2-(2,5-dimethyl-3,4-dihydro-1H-isoquinolin-7-yl)-5H-pyrrolo[2,3-b]pyrazin-7-yl]-N, N-dimethylbenzamide] | 24 nM | 3650 nM
Cc1cc(-c2c[nH]c3ncc(-c4cc(C)c5c(c4)CN(C)CC5)nc23)ccc1C(=O)N(C)C [Example 2, 4-(2-(2,5-dimethyl-1,2,3,4-tetrahydroisoquinolin-7-yl)-5H-pyrrolo[2,3-b]pyrazin-7-yl)-N, N, 2-trimethylbenzamide] | 26 nM | 3340 nM
COc1cc(-c2cnc3[nH]cc(-c4ccc(C(=O)N(C)C[C@H](C)O)cc4)c3n2)cc2c1CN(C)CC2 [Example 3, (S)—N-(2-hydroxypropyl)-4-(2-(8-methoxy-2-methyl-1,2,3,4-tetrahydroisoquinolin-6-yl)-5H-pyrrolo[2,3-b]pyrazin-7-yl)-N-methylbenzamide] | 12 nM | 1270 nM
COc1cc(-c2cnc3[nH]cc(-c4ccc(C(=O)N(C)C[C@H](C)O)c(C)c4)c3n2)cc2c1CN(C)CC2 [Example 6, (S)—N-(2-hydroxypropyl)-4-(2-(8-methoxy-2-methyl-1,2,3,4-tetrahydroisoquinolin-6-yl)-5H-pyrrolo[2,3-b]pyrazin-7-yl)-N, 2-dimethylbenzamide] | 32 nM | 5560 nM
COc1cc(-c2cnc3[nH]cc(-c4ccc(C(=O)N(C)C[C@@H](C)O)cc4)c3n2)cc2c1CN(C)CC2 [Example 10, (R)—N-(2-hydroxypropyl)-4-(2-(8-methoxy-2-methyl-1,2,3,4-tetrahydroisoquinolin-6-yl)-5H-pyrrolo[2,3-b]pyrazin-7-yl)-N-methylbenzamide] | 11 nM | 1420 nM
COc1cc(-c2cnc3[nH]cc(-c4ccc(C(=O)N5CC6(COC6)C5)cc4)c3n2)cc2c1CN(C)CC2 [Example 15, (4-(2-(8-methoxy-2-methyl-1,2,3,4-tetrahydroisoquinolin-6-yl)-5H-pyrrolo[2,3-b]pyrazin-7-yl)phenyl) (2-oxa-6-azaspiro[3.3]heptan-6-yl)methanone] | 17 nM | 1040 nM
Cc1cc(-c2c[nH]c3ncc(-c4cc(C)c5c(c4)CN(C)CC5)nc23)ccc1C(=O)N1CC2(COC2)C1 [Example 16, (4-(2-(2,5-dimethyl-1,2,3,4-tetrahydroisoquinolin-7-yl)-5H-pyrrolo[2,3-b]pyrazin-7-yl)-2-methylphenyl) (2-oxa-6-azaspiro[3.3]heptan-6-yl)methanone] | 88 nM | > 10000 nM
Cc1cc(-c2cnc3[nH]cc(-c4ccc(C(=O)N(C)CC(C)(C)O)cc4)c3n2)cc2c1CCN(C)C2 [Example 20, 4-(2-(2,5-dimethyl-1,2,3,4-tetrahydroisoquinolin-7-yl)-5H-pyrrolo[2,3-b]pyrazin-7-yl)-N-(2-hydroxy-2-methylpropyl)-N-methylbenzamide] | 65 nM | 3870 nM
Cc1cc(-c2c[nH]c3ncc(-c4cc(C)c5c(c4)CN(CCN4CCOCC4)CC5)nc23)ccc1C(=O)N(C)C[C@@H]1CCOC1 [Example 50, (S)—N, 2-dimethyl-4-(2-(5-methyl-2-(2-morpholinoethyl)-1,2,3,4-tetrahydroisoquinolin-7-yl)-5H-pyrrolo[2,3-b]pyrazin-7-yl)-N-((tetrahydrofuran-3-yl)methyl)benzamide] | 137 nM | –
Cc1cc(-c2cnc3[nH]cc(-c4ccc(C(=O)N(C)C[C@@H]5CCOC5)cc4)c3n2)cc2c1CCN(CCN1CCOCC1)C2 [Example 51, (S)—N-methyl-4-(2-(5-methyl-2-(2-morpholinoethyl)-1,2,3,4-tetrahydroisoquinolin-7-yl)-5H-pyrrolo[2,3-b]pyrazin-7-yl)-N-((tetrahydrofuran-3-yl)methyl)benzamide] | 36 nM | –
COCCCNC(=O)CN1CCc2c(C)cc(-c3cnc4[nH]cc(-c5ccc(C(=O)N(C)C)c(C)c5)c4n3)cc2C1 [Example 52, 4-(2-(2-(2-((3-methoxypropyl)amino)-2-oxoethyl)-5-methyl-1,2,3,4-tetrahydroisoquinolin-7-yl)-5H-pyrrolo[2,3-b]pyrazin-7-yl)-N, N, 2-trimethylbenzamide] | 74 nM | –
Cc1cc(-c2c[nH]c3ncc(-c4cc(C)c5c(c4)CN(CCC(=O)N[C@@H]4CCCOC4)CC5)nc23)ccc1C(=O)N(C)C [Example 53, (R)—N, N, 2-trimethyl-4-(2-(5-methyl-2-(3-oxo-3-((tetrahydro-2H-pyran-3-yl)amino)propyl)-1,2,3,4-tetrahydroisoquinolin-7-yl)-5H-pyrrolo[2,3-b]pyrazin-7-yl)benzamide] | 78 nM | –
Cc1cc(-c2c[nH]c3ncc(-c4cc(C)c5c(c4)CN(CCC(=O)N[C@H]4CCC[C@H]4O)CC5)nc23)ccc1C(=O)N(C)C [Example 54, 4-(2-(2-(3-(((1S, 2R)-2-hydroxycyclopentyl)amino)-3-oxopropyl)-5-methyl-1,2,3,4-tetrahydroisoquinolin-7-yl)-5H-pyrrolo[2,3-b]pyrazin-7-yl)-N, N, 2-trimethylbenzamide] | 68 nM | –
Cc1cc(-c2c[nH]c3ncc(-c4cc(C)c5c(c4)CN(CCC(=O)NCC4CC4)CC5)nc23)ccc1C(=O)N(C)C [Example 55, 4-(2-(2-(3-((cyclopropylmethyl)amino)-3-oxopropyl)-5-methyl-1,2,3,4-tetrahydroisoquinolin-7-yl)-5H-pyrrolo[2,3-b]pyrazin-7-yl)-N, N, 2-trimethylbenzamide] | 89 nM | –
Cc1cc(-c2c[nH]c3ncc(-c4cc(C)c5c(c4)CN(CCC(=O)N[C@H]4CC[C@H](O)C4)CC5)nc23)ccc1C(=O)N(C)C [Example 56, 4-(2-(2-(3-(((1S, 3S)-3-hydroxycyclopentyl)amino)-3-oxopropyl)-5-methyl-1,2,3,4-tetrahydroisoquinolin-7-yl)-5H-pyrrolo[2,3-b]pyrazin-7-yl)-N, N, 2-trimethylbenzamide] | 93 nM | –
COc1cc(-c2cnc3[nH]cc(-c4ccc(C(=O)N(C)C[C@@H]5CCOC5)cc4)c3n2)cc2c1CN(C)CC2 [Example 57, (S)-4-(2-(8-methoxy-2-methyl-1,2,3,4-tetrahydroisoquinolin-6-yl)-5H-pyrrolo[2,3-b]pyrazin-7-yl)-N-methyl-N-((tetrahydrofuran-3-yl)methyl)benzamide] | 14 nM | –
COc1cc(-c2cnc3[nH]cc(-c4ccc(C(=O)N(C)C)cc4)c3n2)cc2c1CN(CC(C)(C)O)CC2 [Example 58, 4-(2-(2-(2-hydroxy-2-methylpropyl)-8-methoxy-1,2,3,4-tetrahydroisoquinolin-6-yl)-5H-pyrrolo[2,3-b]pyrazin-7-yl)-N, N-dimethylbenzamide] | 21 nM | –
Cc1cc(-c2cnc3[nH]cc(-c4ccc(C(=O)N(C)CCC#N)cc4)c3n2)cc2c1CCN(C)C2 [Example 59, N-(2-cyanoethyl)-4-(2-(2,5-dimethyl-1,2,3,4-tetrahydroisoquinolin-7-yl)-5H-pyrrolo[2,3-b]pyrazin-7-yl)-N-methylbenzamide] | 16 nM | –
[2H]C([2H])([2H])N(C(=O)c1ccc(-c2c[nH]c3ncc(-c4cc(C)c5c(c4)CCN(C)C5)nc23)cc1C)C([2H])([2H])[2H] [Example 128, 4-(2-(2,8-dimethyl-1,2,3,4-tetrahydroisoquinolin-6-yl)-5H-pyrrolo[2,3-b]pyrazin-7-yl)-2-methyl-N,N-bis(methyl-d3)benzamide] | 21 nM | –
